The record followed here is patent publication US20230303512A1, “MODULATORS OF MYB-MEDIATED TRANSCRIPTION AND USES THEREOF” (Massachusetts Institute of Technology, priority 2020, published 2023).

The structures appear in SMILES notation. “And” between values parts separate entries of the source, which are not always exact repeats. Identical values can stand only once. “Also recorded” adds a separate entry of the source.

Assay [1] deals with MM1.S, a multiple myeloma line. Nature of the assay: Cell Titer Glo assay, MM1.S. The assay is classed as cell-based. As to conditions: Homo sapiens, FIG. 3B. The text has this: FIG. 3B is a plot showing Cell Titer Glo assay results for KI-TM-001 in several hematopoietic lines versus prostate and ovarian cell lines.
(§1) Efforts have also included assessment of impact on viable cell growth using traditional luminescent cell viability assays (e.g., CellTiter-Glo™ or GTG) and high-throughput profiling in barcoded and pooled cancer cell lines. Collaboration with the Broad Institute's PRISM cell profiling platform provided the ability to survey sensitivity to KI-TM-001 against 800 cancer cell lines representing a broad spectrum of lineages, including 300 suspension lines and 500 adherent lines.
(§2) Roughly 650 of the lines passed quality control analyses. […] The CTG assay is well established has been used to survey viability of cell lines used routinely in the lab, noting a separation between solid tumor lines and hematopoetic lineages (FIG. 3B).

The target of another assay is T1, MYB-TAF12 interaction (Homo sapiens, UniProt P10242).
T1 construct: BRET donor or acceptor fusion (which one is not specified); expressed in transfected cells
The assay is described as follows: In-cell BRET protein-protein interaction assay. Format: cell-based. Particulars: FIG. 1B, read-out: IC50 for blocking the MYB-TAF12 interaction. On the procedure:
(§3) In-cell bioluminescence resonance energy transfer (BRET) assays were developed to assess the influence of the compounds on MYB-p300 and MYB-TAF12 interactions (FIG. 1A). […] The ability of KI-TM-001 to modulate MYB protein and transcript levels in MOLT4 and Jurkat cells was also evaluated. […] Degradation appears to be proteasome-dependent as MYB can be rescued by treatment with the proteasome inhibitor MG132.

Assay [2] addresses T2, MYB (Homo sapiens, UniProt P10242). The assay is described as follows: MYB protein levels in MOLT4 and Jurkat cells. Format: cell-based. Details: endogenous in cells; host or cells: MOLT4 and Jurkat cells. The protocol: FIG. 2 is a plot showing a dose curve of KI-TM-001, and its effect on MYB protein levels in Molt4 at the 6 hour timepoint.
as §3
Target sequence in this assay (P10242 whole entry): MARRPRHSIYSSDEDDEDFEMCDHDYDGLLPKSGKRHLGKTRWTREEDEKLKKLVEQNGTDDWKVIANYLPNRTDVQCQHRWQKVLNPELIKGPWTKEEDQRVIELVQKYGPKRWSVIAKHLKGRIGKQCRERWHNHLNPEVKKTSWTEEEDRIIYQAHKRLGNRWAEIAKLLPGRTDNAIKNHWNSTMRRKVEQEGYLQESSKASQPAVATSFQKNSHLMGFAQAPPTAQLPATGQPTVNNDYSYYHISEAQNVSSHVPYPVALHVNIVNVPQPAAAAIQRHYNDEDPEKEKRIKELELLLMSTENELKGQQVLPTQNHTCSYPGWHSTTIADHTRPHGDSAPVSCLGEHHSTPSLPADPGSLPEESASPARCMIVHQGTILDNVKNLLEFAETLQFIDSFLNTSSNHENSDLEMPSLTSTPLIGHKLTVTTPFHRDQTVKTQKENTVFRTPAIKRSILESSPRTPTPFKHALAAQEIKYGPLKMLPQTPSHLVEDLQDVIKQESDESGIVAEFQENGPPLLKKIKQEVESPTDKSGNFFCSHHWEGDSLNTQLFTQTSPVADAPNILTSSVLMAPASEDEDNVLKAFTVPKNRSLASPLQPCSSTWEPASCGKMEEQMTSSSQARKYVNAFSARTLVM

For the next assay, the system named is MYB-NFIB fusion protein. Nature of the assay: Initial binding studies, MYB-NFIB. On the procedure:
(§4) Next, analogues of KI-TM1-001 were prepared and evaluated. Compounds of Formula (I) may be prepared using the synthetic schemes and procedures described in detail below.

A further assay relates to APL line NB4. The assay is described as follows: PRISM cell profiling, NB4. The assay is classed as cell-based. As to conditions: PRISM data set.
Excerpt: as §1, §2

The test system of the next assay is Molt4-5×MRE-FLuc cells. Nature of the assay: Cell-Titer Glo viability assay, Molt4-5×MRE-FLuc cells. The assay is classed as cell-based. As to conditions: 4 hours; read-out: IC50 Cell Titer Glo Molt4-5xMRE-FLuc Viability. On the procedure:
Molt4-5×MRE-FLuc cells were plated at a density of 10000 cells/well in 25 uL of media in a 384-well plate. The following day, compound analogs were added using a Tecan transfer tool. The plates were incubated for 4 hours, and then the viability was measured using promega Cell-titer glo assay according to the manufacturer's protocols.

The subject of another assay is endogenous Myb protein. The assay is described as follows: Molt4-5×MRE-FLuc reporter assay. Format: cell-based. As to conditions: 4 hours, One-Glo, normalized to DMSO; read-out: IC50 Molt4-5xMRE-FLuc Reporter. The protocol:
Molt4 cells were stably transduced with a lentiviral construct encoding a 5×MRE Myb-responsive promoter driving firefly luciferase expression. The reporter output is controlled by the levels/activity of endogenous Myb protein in the Molt4 cell line.
Molt4-5×MRE-FLuc cells were plated at a density of 10000 cells/well in 25 uL of media in a 384-well plate. Compound analogs were added using a Tecan transfer tool to the wells. The plate was incubated for 4 hours, and then firefly luciferase signal measured using promega One-Glo luciferase assay system according to the manufacturer's protocols. The signal was normalized to control wells which were treated with DMSO vehicle.

The target of assay [3] is T2, MYB. Nature of the assay: Initial binding studies, MYB. The protocol:
as §4
Target sequence in this assay (P10242 whole entry, species assumed): as the sequence (P10242 whole entry) above

The next assay has as its system 800 cancer cell lines. Nature of the assay: PRISM cell profiling in barcoded and pooled cancer cell lines. Format: cell-based.
Excerpt: as §1, §2

T1 sequence (P10242 whole entry, the tested form may be a part): as the sequence (P10242 whole entry) above

`Cc1cc(N2CCC(NCc3cccc(N4CCCC4)c3)CC2)nc(N)n1` [KI-TM1-001, 4-Methyl-6-(4-((3-(pyrrolidin-1-yl)benzyl)amino)piperidin-1-yl)pyrimidin-2-amine] returned a GI50 in assay [1] of 2.01 µM. The IC50 at MYB-TAF12 interaction was 7.07 µM and 7.1 µM; in the assay with APL line NB4, 0.21 µM; in the assay on Molt4-5×MRE-FLuc cells, more than 40 µM; in the assay on endogenous Myb protein, 13.6 µM; in the assay with 800 cancer cell lines (PRISM data set, read-out: IC50 in a number of hematopoietic lines) it was less than 1 µM. At MYB [2] (MOLT4 and Jurkat cells), the “time to impact on MYB protein levels” value was not above 2 h. At MYB [2] (MYB rescued by the proteasome inhibitor MG132), the “mechanism of MYB degradation” value was “proteasome-dependent”. The “effect on MYB protein levels” value at MYB [2] (different cell lines (MOLT4, Jurkat), FIG. 1C-E, FIG. 2, listed as KI-TM-001) is recorded as “dose-dependent reduction of MYB protein; also recorded: dose-dependent manner”. Further, the “binding to MYB-NFIB fusion protein” value in the assay with MYB-NFIB fusion protein is given as “binds”. Further, the “binding to MYB” value at MYB [3] is on record as “binds”. For the same molecule, the “lineages most impacted / lineage enrichment (median AUC versus lineage)” value in the assay with 800 cancer cell lines (PRISM, roughly 650 lines passed quality control, FIG. 3A, listed as KI-TM-001) is “rhabdomysosarcoma, multiple myeloma, lymphoma, and leukemia; also recorded: mild enrichment for leukemia, lymphoma, multiple myeloma and rhabdomyosarcoma (RMS) cell lines”.
